Data from PubChem BioAssay AID179 (DTP/NCI, 2004).
pEC50, pIC50: −log10 of the molar value. Where “and” joins values, the source holds several entries; their conditions need not be identical. Identical values can stand only once. Calls of active or inactive are those of the source.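 The calls were made as follows: active = compounds giving half or more protection of infected cells from virus-caused growth loss, again on retest; inactive = the rest.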 Where a SMILES comes first, the peptide text is derived from it. The star is where a group is joined. Fmoc = O=C(OCC1c2ccccc2-c2ccccc21)*; Boc = CC(C)(C)OC(=O)*; OtBu = CC(C)(C)O*

Tested on: CEM cells HIV-1 protection, formazan growth assay
Experiment: NCI AIDS Antiviral Assay
Settings: for pIC50: measured here: growth of uninfected CEM cells
How it was run: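 Five concentrations of each compound were applied to infected and uninfected human CEM cells. Protection from HIV-1 was judged from growth measured with a soluble formazan assay.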

SMILES | pEC50 | pIC50 | outcome
O=C1NC(O)c2cc(O)ccc2O1 (configuration not stated) | < 3.70 | 4.09 | 
CCOC(=O)c1ccc(C(=O)OCC)n1-c1cc2cc(c1)CSCc1cc(cc(-n3c(C(=O)OCC)ccc3C(=O)OCC)c1)CSC2 | < 3.70 | < 3.70 | 
O=C(N[C@@H](c1ccccc1)[C@@H](O)C(=O)OCc1ccc([N+](=O)[O-])cc1)c1ccccc1 | < 3.70 | 3.82 | 
O=C1CCCCC/C1=C\c1cccc(Cl)c1 | < 3.70 | 4.54 | 
COc1ccccc1NC(=O)C1=C(C)NC(C)=C(C(=O)Nc2ccccc2OC)C1c1ccccc1OC | < 4.71 | < 4.71 | 
CC(=O)NNC(=S)/N=C/C(C(=O)Nc1ccc([N+](=O)[O-])cc1)=C(\C)O | 3.93 | 3.77 | 
O=S1(=O)CC(N2CCOCC2)C2=C(O1)c1sc(-c3ccccc3)nc1CC2 (configuration not stated) |  |  | inactive
CN1C2CCC1/C(=C/c1cccc3c1OCO3)C(=O)/C2=C\c1cccc2c1OCO2 | < 5.17 | < 5.17 | 
COc1cccc(N=N/C(=N\NC(=O)c2cc(Br)ccc2O)c2ccc(N(CCC#N)CCC#N)cc2OC)c1 | < 4.00 | 4.87 | 
CCOC(=O)N1CCc2cc(OC)c(OC)cc2/C1=C/c1ccc(OC)c(OC)c1 |  |  | inactive
COC1/C=C/OC2(C)Oc3c(C)c(O)c4c(O)c(c(/C=N/N(C)c5ncnc6c5ncn6C5OC(CO)C(O)C5O)c(O)c4c3C2=O)NC(=O)C(C)=C/C=C/C(C)C(O)C(C)C(O)C(C)C(OC(C)=O)C1C (configuration not stated) | < 3.70 | 3.96 | 
C=C1C(=O)OC2/C=C(\CO)C(OC(C)=O)CC(O)/C(C)=C/C(OC(=O)C(C)CC)C12 (configuration not stated) |  |  | inactive
NC1Cc2ccccc2OC1=O (configuration not stated) | < 3.70 | < 3.70 | 
COc1ccc([C@H]2CC(=O)NCCCCN2)cc1 | < 3.70 | < 3.70 | 
O=C1/C(=C/c2ccc3c(c2)OCO3)Sc2scc(-c3ccc(O)c(O)c3)[n+]21 | < 3.70 | 5.96 | 
CCOC(=O)C(C)C(CCC#N)(C(=O)OCC)C(=O)OCC (configuration not stated) | < 3.70 | < 3.70 | 
CC(C)(CO)CNc1cc(=O)[nH]c(N)n1 | < 3.70 | < 3.70 | 
CCCCCC/C(CC(=O)CCC(=O)NCCc1ccccc1)=N\Nc1ccc([N+](=O)[O-])cc1[N+](=O)[O-] | < 4.01 | < 4.01 | 
CCN(CC)CCn1c(=O)c2ccccc2n2c3c(=O)n(C)c(=O)n(C)c3nc12 | < 4.70 | 5.73 | 
O=C(OCCN1CCCCC1)C(c1ccccc1)C1(O)CCSCC1 (configuration not stated) | < 3.70 | < 3.70 | 
C/C(CC(=O)Nc1ccc(Cl)cc1)=N\NC(=O)C[n+]1ccccc1 | < 4.31 | < 4.31 | 

SMILES | pEC50 | pIC50 | outcome
CC1(C)c2ccccc2N2C(c3ccccc3)=NOC21C (configuration not stated) | < 4.59 | < 4.59 | 
C[Si](C)(/C=C(\Br)CCOC1CCCCO1)c1ccccc1 (configuration not stated) |  |  | inactive
CC(C)(C)c1cc(O)c2c(c1O)C(=O)CCC2 |  |  | inactive
C=CC[N+](CC)(CC)Cc1ccc(C[N+](CC)(CC)CC=C)cc1 | < 3.29 | < 3.29 | 
O=C1C2=C(c3ccccc31)C(c1ccccc1Cl)N1C(=O)CCSC1=N2 (configuration not stated) | < 4.58 | < 4.58 | 
COC1N(C2C=CC(CO)O2)C(=O)NC(=O)C1(C)Br (configuration not stated) | 4.00 | 3.89 | 
CC1(C)CNC[C@@](C)(O)C(=O)[N-]C(C)(C)CNC[C@@](C)(O)C(=O)[N-]1.[Ni+2] | < 3.70 | 4.14 | 
CC(C)(C)OC(=O)CCC(NC(=O)OCC1c2ccccc2-c2ccccc21)C(=O)NC(Cc1c[nH]c2ccccc12)C(=O)NC(CCCCNC(=O)OC(C)(C)C)C(=O)N1CCCC1C(=O)NCC(N)=O (configuration not stated) (Fmoc-E(OtBu)WK(Boc)PG-NH2; configuration not given here) | < 4.00 | < 4.00 and 4.35 | 
COc1ccccc1Cn1nc(OC)c2cc([N+](=O)[O-])ccc21 | < 3.82 | < 3.82 | 
Nc1nc(-c2ccco2)cc(-c2ccc(CO)o2)n1 | < 3.71 | 3.97 | 
O=S(=O)(O)c1cc(N=Nc2cc(S(=O)(=O)O)c3cccnc3c2O)ccc1/C=C/c1ccc(N=Nc2cc(S(=O)(=O)O)c3cccnc3c2O)cc1S(=O)(=O)O.[Na+].[Zn+2] | 5.71 | 4.85 | 
Cc1ccccc1N=C(N)Nc1ccccc1C | < 3.70 | < 3.70 | 
Cc1nc2ccccc2c(=O)n1N1C2CCCC21 (configuration not stated) | < 3.70 | < 3.70 | 
CCCCSc1nc2c(=O)[nH][nH]c(=O)c2n1Cc1ccccc1 | < 3.70 | 3.80 | 
CCOC(=O)C1=CN(Cc2ccccc2)C2ON=C(c3ccc(Cl)cc3)C2C1 (configuration not stated) | < 3.70 | 4.50 | 
CC1(C)CC2(S(=O)(=O)c3ccccc3)ON1CC2S(=O)(=O)c1ccccc1 (configuration not stated) |  |  | inactive
CC(=O)c1ccc(C(O)C(CO)NC(=O)C(Cl)Cl)cc1 (configuration not stated) | < 3.70 | < 3.70 | 
O=C(C1CC2CCN1CC2)N1CCN(C(=O)C2CC3CCN2CC3)CC1 (configuration not stated) | < 3.70 | < 3.70 | 
CNC(=O)CN(C)C(=O)CCC(=O)N(C)C | < 3.70 | < 3.70 | 
COC(=O)CCC12CCC(O1)c1ccccc12 (configuration not stated) | < 3.70 | < 3.70 | 
Cc1ccc(C(=O)O)cc1S(=O)(=O)Nn1cnc2ccc(S(=O)(=O)Nc3ccccc3C(=O)O)cc2c1=O | < 3.70 | < 3.70 | 

SMILES | pEC50 | pIC50 | outcome
O=C(CCNC12CC3CC(CC(C3)C1)C2)c1ccccc1 |  |  | inactive
C[C@H]1C2=CC(=O)CC[C@@](C)(O2)[C@H]2CC[C@]3(C)C(=O)CC[C@H]3[C@H]12 | < 3.08 | 3.38 | 
OC(C(c1ccccc1)c1ccccn1)(C(F)(F)F)C(F)(F)F (configuration not stated) | < 3.70 | < 3.70 | 
Cc1cc(C)c2cc(N)c(Cl)nc2n1 | < 3.70 | 3.84 | 
N#C/C=C/c1cccc(F)c1 | < 4.31 | < 4.31 | 
CC1=NNC(=S)NCCCN2CCN(CCCNC(=S)NN=C(C)C=NNC(=S)NCCCN3CCN(CCCNC(=S)NN=C1)CC3)CC2 | < 3.91 | < 3.91 | 
N/N=C(/c1ccccc1)c1cccc([N+](=O)[O-])c1 | < 3.70 | 3.78 | 
S=c1sc2sc(=S)sc2s1 |  |  | inactive
COC(=O)c1ccc(NCc2cc(OC)ccc2OC)cc1 | < 3.70 | 4.62 | 
C[C@]12CCC[C@H](O)[C@H]1C[C@H](CO)CC2 |  |  | inactive
NC(=O)CSc1c2cc(O)ccc2nc2ccc(O)cc12 | < 3.70 | 4.44 | 
Cn1c(=O)c2c(nc(C[N+]3([O-])CCOCC3)n2C)n(C)c1=O | < 4.08 | < 4.08 | 
O=C(Nc1ccccc1)C(=O)C(C(=O)c1ccccc1F)C1OC(=O)c2ccccc21 (configuration not stated) | < 3.51 | 4.76 | 
CC1=NN(c2ccccc2)C(=O)C1N=Nc1ccc(S(=O)(=O)Nc2nccc(C)n2)cc1 (configuration not stated) |  |  | inactive
O=C(Nc1ccc(S(=O)(=O)c2ccc(NC(=O)c3ccc(N=Nc4cc(S(=O)(=O)O)c5cccnc5c4O)cc3S(=O)(=O)O)cc2)cc1)c1ccc(N=Nc2cc(S(=O)(=O)O)c3cccnc3c2O)cc1S(=O)(=O)O | 5.42 | 4.03 | 
COC(=O)c1ccc(/C=C2\Cc3ccccc3C2=O)cc1 | < 3.70 | < 3.70 | 
CC(=O)ONc1nn2cc(-c3ccccc3)nc2s1 | < 3.70 | < 3.70 | 
O=C(CCCC[n+]1ccccc1)Sc1ccccc1C(=O)Nc1ccc(S(=O)(=O)Nc2cnc3ccccc3n2)cc1 | 4.91 | 4.72 | 
C[N+](C)(C)CC(=O)N/N=C(/C(=O)Nc1ccc(Br)cc1)C1C(=O)NC(=O)NC1=O | < 3.70 | < 3.70 | 
Cn1cnc(N)c1S(=O)(=O)Nc1ccccc1Cl | < 3.25 | < 3.25 | 
O=C(Nc1ccc(C2=NCCN2)c(O)c1)c1ccc(C(=O)Nc2ccc(C3=NCCN3)c(O)c2)cc1 | 4.02 | < 3.70 | 

SMILES | pEC50 | pIC50 | outcome
COc1cc(CNC(=O)CCCCCCCCCCSSCCCCCCCCCCC(=O)NCc2ccc(O)c(OC)c2)ccc1O | < 3.70 |  | 
CC1(C)OC2OC(COC(=O)c3ccc(C#N)cc3)C3OC(C)(C)OC3C2O1 (configuration not stated) |  |  | inactive
O=C(O)CCC(=O)NCCOC(=O)CCC(=O)O | < 3.02 | < 3.02 | 
CCOC(=O)c1[nH]c2c(OCC)nc(OCC)nc2c1Br | < 3.70 | < 3.70 | 
O=S(=O)(Nc1nnc2c3ccccc3cnn12)c1ccc(Cl)cc1S | 4.44 | 3.31 | 
N#CC1=CNc2sccc2S1(=O)=O | < 3.70 | < 3.70 | 
Cc1cc(N(CCC#N)S(C)(=O)=O)ccc1C=O | < 3.03 | < 3.03 | 
CCCCCCCCCCCCCP(=O)(OC)OC |  |  | inactive
CCOC(=O)C(O)(CC1=NC(C(=O)OC)(C(=O)OC)C(c2cccc(C=O)c2)O1)C(=O)OCC (configuration not stated) | < 3.70 | < 3.70 | 
CCOC(=O)c1sc2[n+](c1C)C(=O)/C(=C/c1ccccc1Cl)S2 | < 3.70 | 5.47 | 
CNC(=O)N(CCCC(NC(C)=O)C(=O)NCc1ccccc1)Cc1ccccc1 (configuration not stated) | < 3.22 | < 3.22 | 
O=[N+]([O-])c1ccc(Sc2c3ccccc3nc3cc(Cl)ccc23)cc1 | < 5.40 | < 5.40 | 
O=CN(CCNc1ccccc1)c1ccccc1 | < 3.70 | < 3.70 | 
CC#N.CC#N.COC(=O)[C@H]1CCC(=O)[N-]1.COC(=O)[C@H]1CCC(=O)[N-]1.COC(=O)[C@H]1CCC(=O)[N-]1.COC(=O)[C@H]1CCC(=O)[N-]1.[Rh+2].[Rh+2] | < 3.70 | < 3.70 | 
Cc1cc(C(=C2C=CC(=Nc3ccc(S(=O)(=O)O)cc3)C=C2)c2ccc(Nc3ccc(S(=O)(=O)O)cc3)cc2)cc(S(=O)(=O)O)c1N | 4.52 | 4.31 | 
CC[N+]1(C)CCC(O)(/C=C/c2ccc(Cl)cc2)C(C(=O)/C=C/c2ccc(Cl)cc2)C1 (configuration not stated) | < 4.70 | 5.53 | 
CCOc1cc2c[n+](C)c3c4cc(OC)c(OC)cc4ccc3c2cc1OC | < 4.48 | < 4.48 | 
CCOC(=O)c1c(OC)cc2n(c1=O)Cc1cc3ccccc3nc1-2 | < 5.00 | < 5.00 | 
COc1ccc(Nc2nc3c(s2)c(C)c(O)c2ccccc23)cc1 | < 5.54 | 6.07 | 
CCC1=C(C)/C(=C/c2[nH]c(CBr)c(CC)c2C)N=C1CBr |  |  | inactive
